Measured values reported in patent US10689340B2, “Substituted indoline derivatives as dengue viral replication inhibitors” (priority 2016, dated 2020).

Legend:
in vitro = conditions: African green monkey
DENV-2 16681 strain = assay: DENV-2 antiviral assay (eGFP fluorescence); assay type: cell-based, Dengue virus; conditions: DENV-2 16681 eGFP, Vero cells, MOI 0.5, 3 days
Method: The antiviral activity of all the compounds of the invention was tested against the DENV-2 16681 strain which was labeled with enhanced green fluorescent protein (eGPF). The culture medium consists of minimal essential medium supplemented with 2% of heat-inactivated fetal calf serum, 0.04% gentamycin (50 mg/mL) and 2 mM of L-glutamine. Vero cells, obtained from ECACC, were suspended in culture medium and 25 μL was added to 384-well plates (2500 cells/well), which already contain the antiviral compounds. Typically, these plates contain a 5-fold serial dilution of 9 dilution steps of the test compound at 200 times the final concentration in 100% DMSO (200 nL). […] Finally, each plate contains wells which are assigned as virus controls (containing cells and virus in the absence of compound), cell controls (containing cells in the absence of virus and compound) and medium controls (containing medium in the absence of cells, virus and compounds). To the wells assigned as medium control, 25 μL of culture medium was added instead of Vero cells. Once the cells were added to the plates, the plates were incubated for 30 minutes at room temperature to allow the cells to distribute evenly within the wells. Next, the plates were incubated in a fully humidified incubator (37° C., 5% CO2) until the next day. Then, DENV-2 strain 16681, labeled with eGFP, was added at a multiplicity of infection (MOI) of 0.5. Therefore, 15 μL of virus suspension was added to all the wells containing test compound and to the wells assigned as virus control. In parallel, 15 μL of culture medium was added to the medium and cell controls. Next, the plates were incubated for 3 days in a fully humidified incubator (37° C., 5% CO2). At the day of the read out, the eGFP fluorescence was measured using an automated fluorescence microscope at 488 nm (blue laser). Using an in-house LIMS system, inhibition dose response curves for each compound were calculated and the half maximal effective concentration (EC50) was determined. Therefore, the percent inhibition (I) for every test concentration is calculated using the following formula: I=100*(ST-SCC)/(SVC-SCC); ST, SCC and SVC are the amount of eGFP signal in the test compound, cell control and virus control wells, respectively. The EC50, represents the concentration of a compound at which the virus replication is inhibited with 50%, as measured by a 50% reduction of the eGFP fluorescent intensity compared to the virus control. The EC50 is calculated using linear interpolation (Table 1).

[1] = Dengue virus, DENV2, Vero, 72 h

| Compound | CC50 (in vitro) | EC50 (DENV-2 16681 strain) | EC50 (DENV-2 16681 strain; [1]) |
| --- | --- | --- | --- |
| COc1cc(NC(C(=O)N2CCc3cc(OC)c(C(F)(F)F)cc32)c2ccc(Cl)cc2)cc(OCCCC(=O)O)c1 (single isomer, unassigned) [Compound 5A] | 12000 nM | 19 nM | – |
| COc1cc(NC(C(=O)N2CCc3cc(OC)c(OC(F)(F)F)cc32)c2ccc(Cl)cc2)cc(OCCCC(=O)O)c1 (racemic) [Compound 12, 4-(3-((1-(4-chlorophenyl)-2-(5-methoxy-6-(trifluoro-methoxy)indolin-1-yl)-2-oxoethyl)amino)-5-methoxyphenoxy)butanoic acid] | 12000 nM | – | 0.73 nM |
| COc1cc(NC(C(=O)N2CCc3cc(OC)c(C(F)(F)F)cc32)c2ccc(Cl)cc2OC)cc(OCCCC(=O)O)c1 (racemic) [Compound 7, 4-(3-((1-(4-chloro-2-methoxyphenyl)-2-(5-methoxy-6-(trifluoromethyl)indolin-1-yl)-2-oxoethyl)amino)-5-methoxyphenoxy)butanoic acid] | 12000 nM | – | 0.47 nM |
| COc1cc(NC(C(=O)N2CCc3ccc(OC(F)(F)F)cc32)c2ccc(Cl)cc2)cc(OCCCC(=O)O)c1 (single isomer, unassigned) [Compound 4A] | 10000 nM | 31 nM | – |
| COc1cc(NC(C(=O)N2CCc3cc(OC)c(C(F)(F)F)cc32)c2ccc(Cl)cc2OC)cc(OCCCC(=O)O)c1 (single isomer, unassigned) [Compound 7A] | 12000 nM | 24 nM | – |
| COc1cc(NC(C(=O)N2CCc3ccc(C(F)(F)F)cc32)c2ccc(Cl)cc2F)cc(OCCCC(=O)O)c1 (racemic) [Compound 9, 4-(3-((1-(4-chloro-2-fluorophenyl)-2-oxo-2-(6-(trifluoromethyl)indolin-1-yl)ethyl)amino)-5-methoxy-phenoxy)butanoic acid] | 11000 nM | – | 0.96 nM |
| COc1cc(NC(C(=O)N2CCc3ccc(C(F)(F)F)cc32)c2ccc(Cl)cc2OC)cc(OCCCC(=O)O)c1 (racemic) [Compound 6, 4-(3-((1-(4-chloro-2-methoxyphenyl)-2-oxo-2-(6-(trifluoro-methyl)indolin-1-yl)ethyl)amino)-5-methoxyphenoxy)butanoic acid] | 12000 nM | – | 0.31 nM |
| COc1cc(NC(C(=O)N2CCc3ccc(C(F)(F)F)cc32)c2ccc(Cl)cc2F)cc(OCCCC(=O)O)c1 (single isomer, unassigned) [Compound 9A] | 12000 nM | 31 nM | – |
| COc1cc(NC(C(=O)N2CCc3ccc(OC(F)(F)F)cc32)c2ccc(Cl)cc2)cc(OCCCC(=O)O)c1 (racemic) [Compound 4, 4-(3-((1-(4-chlorophenyl)-2-oxo-2-(6-(trifluoromethoxy)indolin-1-yl)ethyl)amino)-5-methoxyphenoxy)butanoic acid] | 10000 nM | – | 0.15 nM |
| COc1cc(NC(C(=O)N2CCc3ccc(C(F)(F)F)cc32)c2ccc(F)cc2)cc(OCCCC(=O)O)c1 (racemic) [Compound 1, 4-(3-((1-(4-fluorophenyl)-2-oxo-2-(6-(trifluoromethyl)-indolin-1-yl)ethyl)amino)-5-methoxyphenoxy)butanoic acid] | > 25000 nM | – | 2.1 nM |
| COc1cc(NC(C(=O)N2CCc3cc(OC)c(C(F)(F)F)cc32)c2ccc(Cl)cc2)cc(OCCCC(=O)O)c1 (racemic) [Compound 5, 4-(3-((1-(4-chlorophenyl)-2-(5-methoxy-6-(trifluoromethyl)indolin-1-yl)-2-oxoethyl)amino)-5-methoxyphenoxy)butanoic Acid] | 13000 nM | – | 0.62 nM |
| COc1cc(NC(C(=O)N2CCc3ccc(OC(F)(F)F)cc32)c2ccc(F)cc2)cc(OCCCC(=O)O)c1 (racemic) [Compound 2, 4-(3-((1-(4-fluorophenyl)-2-oxo-2-(6-(trifluoromethoxy)indolin-1-yl)ethyl)amino)-5-methoxyphenoxy)butanoic acid] | 12000 nM | – | 0.55 nM |
| COc1cc(NC(C(=O)N2CCc3cc(OC)c(C(F)(F)F)cc32)c2ccc(Cl)cc2F)cc(OCCCC(=O)O)c1 (single isomer, unassigned) [Compound 11A] | 12000 nM | 15 nM | – |
